ChEMBL document CHEMBL4359811, “Development of Potent and Selective Pyrazolopyrimidine IRAK4 Inhibitors” (J Med Chem, 2019)
Converted amounts (≈) assume the structure as drawn.

Columns and labels:
[1] = Kinetic aqueous solubility of the compound in PBS buffer at pH 7.4 incubated for 24 hrs under shaking condition by LC-CLND assay; format: physicochemical; settings: PBS buffer, pH 7.4; read-out: Kinetic_solubility
[2] = Apparent permeability from apical to basolateral side in MDCK cells at 10 uM incubated for 180 mins and measured up to 180 min by LC-MS/MS analysis; format: ADME, cell-based, Canis lupus familiaris; settings: dog
[3] = Protein binding in mouse plasma at 5 uM incubated for 4 hrs by LC-MS/MS analysis; format: ADME, cell-free; settings: read-out: PPB (converted)
[4] = Cmax in mouse at 10 mg/kg, po; format: ADME, organism-based; parameters: dose 10 mg/kg, route oral; settings: in vivo
[5] = Cmax in mouse at 30 mg/kg, po; format: ADME, organism-based; parameters: dose 30 mg/kg, route oral; settings: in vivo
[6] = AUC (infinity) in mouse at 5 mg/kg, po; format: ADME, organism-based; parameters: dose 5 mg/kg, route oral, time infinity; settings: in vivo
[7] = AUC (infinity) in mouse at 10 mg/kg, po; format: ADME, organism-based; parameters: dose 10 mg/kg, route oral, time infinity; settings: in vivo
[8] = AUC (infinity) in mouse at 30 mg/kg, po; format: ADME, organism-based; parameters: dose 30 mg/kg, time infinity, route oral; settings: in vivo
[9] = AUC (infinity) in mouse at 100 mg/kg, po administered as suspension in MCT; format: ADME, organism-based; parameters: dose 100 mg/kg, time infinity, route oral; settings: in vivo
[10] = Oral bioavailability in mouse at 100 mg/kg administered as suspension in MCT; format: ADME, organism-based; settings: in vivo
[11] = Oral bioavailability in monkey at 1 mg/kg; format: ADME, organism-based, Macaca mulatta; settings: rhesus monkey, in vivo
[12] = Half-life in rat at 1 mg/kg, po; format: ADME, organism-based; settings: in vivo
[13] = Cmax in mouse at 100 mg/kg, po administered as suspension in 10% captisol; format: ADME, organism-based; parameters: dose 100 mg/kg, route oral; settings: in vivo
[14] = Cmax in mouse at 300 mg/kg, po administered as suspension in MCT; format: ADME, organism-based; parameters: dose 300 mg/kg, route oral; settings: in vivo
[15] = AUC (infinity) in mouse at 100 mg/kg, po administered as suspension in 10% captisol; format: ADME, organism-based; parameters: dose 100 mg/kg, route oral, time infinity; settings: in vivo
[16] = AUC (infinity) in mouse at 300 mg/kg, po administered as suspension in MCT; format: ADME, organism-based; parameters: dose 300 mg/kg, route oral, time infinity; settings: in vivo
[17] = AUC (infinity) in mouse at 300 mg/kg, po administered as suspension in 10% captisol; format: ADME, organism-based; parameters: dose 300 mg/kg, route oral, time infinity; settings: in vivo
[18] = Oral bioavailability in mouse at 100 mg/kg administered as suspension in 10% captisol; format: ADME, organism-based; settings: in vivo
[19] = Oral bioavailability in mouse at 300 mg/kg administered as suspension in MCT; format: ADME, organism-based; settings: in vivo
[20] = Oral bioavailability in mouse at 300 mg/kg administered as suspension in 10% captisol; format: ADME, organism-based; settings: in vivo
[21] = Half-life in mouse at 5 mg/kg, po; format: ADME, organism-based; settings: in vivo
[22] = Half-life in mouse at 10 mg/kg, po; format: ADME, organism-based; settings: in vivo
[23] = Half-life in mouse at 100 mg/kg, po administered as suspension in MCT; format: ADME, organism-based; settings: in vivo
[24] = Protein binding in dog plasma at 5 uM incubated for 4 hrs by LC-MS/MS analysis; format: ADME, cell-free, Canis lupus familiaris; settings: read-out: PPB (converted)
[25] = Plasma clearance in rat at 1 mg/kg, iv; format: ADME, organism-based
[26] = Plasma clearance in monkey at 1 mg/kg, iv; format: ADME, organism-based, Macaca mulatta; settings: rhesus monkey
[27] = Plasma clearance in dog at 0.3 mg/kg, iv; format: ADME, organism-based, Canis lupus familiaris
[28] = Volume of distribution at steady state in rat at 1 mg/kg, iv; format: ADME, organism-based; settings: in vivo, read-out: Vdss
[29] = Volume of distribution at steady state in dog at 0.3 mg/kg, iv; format: ADME, organism-based, Canis lupus familiaris; settings: in vivo, read-out: Vdss
[30] = Cmax in rat at 1 mg/kg, po; format: ADME, organism-based; parameters: dose 1 mg/kg, route oral; settings: in vivo
[31] = Cmax in monkey at 1 mg/kg, po; format: ADME, organism-based, Macaca mulatta; parameters: dose 1 mg/kg, route oral; settings: rhesus monkey, in vivo
[32] = Cmax in dog at 1 mg/kg, po; format: ADME, organism-based, Canis lupus familiaris; parameters: dose 1 mg/kg, route oral; settings: in vivo
[33] = AUC (infinity) in rat at 1 mg/kg, po; format: ADME, organism-based; parameters: dose 1 mg/kg, time infinity, route oral; settings: in vivo
[34] = AUC (infinity) in monkey at 1 mg/kg, po; format: ADME, organism-based, Macaca mulatta; parameters: dose 1 mg/kg, time infinity, route oral; settings: rhesus monkey, in vivo
[35] = Oral bioavailability in rat at 1 mg/kg; format: ADME, organism-based; settings: in vivo
[36] = Oral bioavailability in dog at 1 mg/kg; format: ADME, organism-based, Canis lupus familiaris; settings: in vivo
[37] = Half-life in monkey at 1 mg/kg, po; format: ADME, organism-based, Macaca mulatta; settings: rhesus monkey, in vivo
Mus musculus [38] = assay: In vivo inhibition of IRAK4 in CpG ODN 1826 induced C57BL/6 mouse assessed as blockade of TLR9 signalling by measuring IL-6 levels at 3 mg/kg, po treated 1 hr prior to CpG ODN 1826 stimulation and measured after 1 hr by MSD assay; format: functional; parameters: scale not given: the % may be the effect or the level left
Mus musculus [39] = assay: In vivo inhibition of IRAK4 in CpG ODN 1826 induced C57BL/6 mouse assessed as blockade of TLR9 signalling by measuring IL-6 levels at 10 mg/kg, po treated 1 hr prior to CpG ODN 1826 stimulation and measured after 1 hr by MSD assay; format: functional; parameters: scale not given: the % may be the effect or the level left
Mus musculus [40] = assay: In vivo inhibition of IRAK4 in CpG ODN 1826 induced C57BL/6 mouse assessed as blockade of TLR9 signalling by measuring IL-6 levels at 30 mg/kg, po treated 1 hr prior to CpG ODN 1826 stimulation and measured after 1 hr by MSD assay; format: functional; parameters: scale not given: the % may be the effect or the level left
Mus musculus [41] = assay: In vivo inhibition of IRAK4 in CpG ODN 1826 induced C57BL/6 mouse assessed as blockade of TLR9 signalling by measuring IL-6 levels at 100 mg/kg, po treated 1 hr prior to CpG ODN 1826 stimulation and measured after 1 hr by MSD assay; format: functional; parameters: scale not given: the % may be the effect or the level left
Mus musculus [42] = assay: In vivo inhibition of IRAK4 in CpG ODN 1826 induced C57BL/6 mouse assessed as blockade of TLR9 signalling by measuring TNFalpha levels at 1 mg/kg, po treated 1 hr prior to CpG ODN 1826 stimulation and measured after 1 hr by MSD assay; format: functional; parameters: scale not given: the % may be the effect or the level left
Mus musculus [43] = assay: In vivo inhibition of IRAK4 in CpG ODN 1826 induced C57BL/6 mouse assessed as blockade of TLR9 signalling by measuring TNFalpha levels at 3 mg/kg, po treated 1 hr prior to CpG ODN 1826 stimulation and measured after 1 hr by MSD assay; format: functional; parameters: scale not given: the % may be the effect or the level left
Mus musculus [44] = assay: In vivo inhibition of IRAK4 in CpG ODN 1826 induced C57BL/6 mouse assessed as blockade of TLR9 signalling by measuring TNFalpha levels at 10 mg/kg, po treated 1 hr prior to CpG ODN 1826 stimulation and measured after 1 hr by MSD assay; format: functional; parameters: scale not given: the % may be the effect or the level left
Mus musculus [45] = assay: In vivo inhibition of IRAK4 in CpG ODN 1826 induced C57BL/6 mouse assessed as blockade of TLR9 signalling by measuring TNFalpha levels at 30 mg/kg, po treated 1 hr prior to CpG ODN 1826 stimulation and measured after 1 hr by MSD assay; format: functional; parameters: scale not given: the % may be the effect or the level left
[46] = Drug concentration in CpG ODN 1826 induced C57BL/6 mouse plasma at 1 to 100 mg/kg, po treated 1 hr prior to CpG ODN 1826 stimulation and measured after 1 hr by MSD assay; format: ADME, organism-based; settings: in vivo
[47] = Half-life in mouse at 300 mg/kg, po administered as suspension in MCT; format: ADME, organism-based; settings: in vivo
[48] = Half-life in mouse at 300 mg/kg, po administered as suspension in 10% captisol; format: ADME, organism-based; settings: in vivo

Work on `C[C@]1(CO)Cc2cc(NC(=O)c3cnn4cccnc34)c(N3CCOCC3)cc2O1` yielded a solubility kinetic at 24 h [1] of 10 µM (≈ 4.09 µg/mL), a Papp A→B at 3 h, 10 µM [2] of 15 ×10⁻⁶ cm/s and a fraction unbound at 4 h, 5 µM [3] of 0.14. It also gave a Cmax [4] of 5.4 µM, a Cmax [5] of 7.2 µM and an AUC(0-inf) [6] of 2.3 µM·h. The AUC(0-inf) [7] was 10 µM·h, the AUC(0-inf) [8] was 17 µM·h and the AUC(0-inf) [9] was 15.1 µM·h. It also gave a bioavailability [10] of 19%, a bioavailability [11] of 85% and a half-life [12] of 228 min. For the same compound, the Cmax [13] was 9.7 µM, the Cmax [14] was 10 µM and the AUC(0-inf) [15] was 98 µM·h. It also gave an AUC(0-inf) [16] of 63 µM·h, an AUC(0-inf) [17] of 340 µM·h and a bioavailability [18] of 49%. It also gave a bioavailability [19] of 22%, a bioavailability [20] of 33% and a half-life [21] of 30 min. It also gave a half-life [22] of 78 min, a half-life [23] of 96 min and a fraction unbound at 4 h, 5 µM [24] of 0.34. For the same compound, the clearance [25] was 6.6 mL/min/kg, the clearance [26] was 11 mL/min/kg and the clearance [27] was 9.3 mL/min/kg. It also gave a Vd [28] of 2.3 L/kg, a Vd [29] of 8 L/kg and a Cmax [30] of 400 nM. The Cmax [31] was 300 nM, the Cmax [32] was 200 nM and the AUC(0-inf) [33] was 3 µM·h. For the same compound, the AUC(0-inf) [34] was 3.3 µM·h, the bioavailability [35] was 42% and the bioavailability [36] was 30%. It also gave a half-life [37] of 180 min, an Activity (Mus musculus [38]) of -27% and an Activity (Mus musculus [39]) of -69%. The Activity (Mus musculus [40]) was -78%, the Activity (Mus musculus [41]) was -91% and the Activity (Mus musculus [42]) was 3%. The Activity (Mus musculus [43]) was -18%, the Activity (Mus musculus [44]) was -39% and the Activity (Mus musculus [45]) was -79%. The Drug uptake [46] was “Active”, the half-life [47] was 1390 min and the half-life [48] was 2520 min.
